Data from ChEMBL document CHEMBL3621063, “Discovery of potent HIV-1 non-nucleoside reverse transcriptase inhibitors from arylthioacetanilide structural motif” (Eur J Med Chem, 2015).

Assays:
[1] = system: Human immunodeficiency virus 1; assay: Antiviral activity against HIV-1 3B infected in human MT4 cells assessed as cell viability after 5 days by MTT assay; format: functional, organism-based; conditions: Human immunodeficiency virus 1, 3B, MT4, 120 h
[2] = system: Human immunodeficiency virus 1; assay: Antiviral activity against wild-type HIV-1 infected in human MT4 cells; format: functional, organism-based; conditions: Human immunodeficiency virus 1, MT4
[3] = Selectivity index, ratio of CC50 for human MT4 cells to EC50 for wild-type HIV-1 infected in human MT4 cells; format: toxicity, cell-based; conditions: uninfected and infected with wild-type HIV-1, read-out: Ratio CC50/EC50
[4] = system: Human immunodeficiency virus 1; assay: Antiviral activity against HIV-1 harboring reverse transcriptase K103N/Y181C double mutant infected in human MT4 cells; format: functional, organism-based; conditions: Human immunodeficiency virus 1, MT4
[5] = Cytotoxicity against human MT4 cells; format: cell-based
[6] = Selectivity index, ratio of CC50 for human MT4 cells to EC50 for HIV-1 harboring reverse transcriptase K103N/Y181C double mutant infected in human MT4 cells; format: toxicity, cell-based; conditions: read-out: Ratio CC50/EC50

Row | SMILES | EC50 [1] [µM] | EC50 [2] [µM] | selectivity ratio [3] | EC50 [4] [µM] | CC50 [5] [µM] | selectivity ratio [6]
1 | O=C(CSc1sc(Cl)nc1-c1ccc(Br)cc1Br)Nc1ccccc1[N+](=O)[O-] | 2.09 | – | – | – | – | –
2 | O=C(CSc1nnsc1-c1cccc2ccccc12)Nc1ccccc1Br | – | 0.044 | 3920 | 34.4 | 172 | 5
3 | O=C(CSc1nnsc1-c1cccc2ccccc12)Nc1cccnc1Cl | – | 0.019 | 6440 | 5.11 | 121 | 24
